Legend:
[1] = Clinical tolerability / adverse effects; settings: view of the Applicant
depressed patients = settings: 10-50 mg intravenously, with a monoamino-oxydase inhibitor; cited from earlier work
[2] = Acute toxicity, intraperitoneal; format: in vivo, I.C.R. Swiss albino mice; settings: mouse, in vivo, ip; mice of both sexes, intraperitoneal
Procedure: (§1) The studies of acute toxicity have been made with I.C.R. Swiss albino mice of both sexes. We express the toxicity date with the parameters of lethal dose 16 (LD16), lethal dose 50 (LD50) and lethal dose 84 (LD84), in mg/kg. of weight. The substance was administered intraperitoneally.

I.C.R. Swiss albino mice = test: Acute toxicity, intraperitoneal; format: in vivo
Procedure: as §1

female mice = test: Irwin's schema (behavioural symptomatology); format: in vivo; settings: for symptomatology of our product observed with comparator: L-glutamic acid and L-5 hydroxytryptophan: separate administration at equimolecular doses
cerebral serotonin [3] = settings: statement without data; cited from earlier work
[4] = clinical use, as described; cited from earlier work
MAO = settings: non-hydrazinic MAO inhibitor; cited from earlier work
serotonin in the brain = settings: dogs; cited from earlier work
[5] = cited from earlier work
depressive patient = settings: total dose 150 mg, cited from earlier work; for response of depressive symptoms: amitryptiline with anticonvulsivant therapy for two months, 5-hydroxytryptophan 5 days, L-DOPA previously
[6] = test system: antidepressive effects of the MAO inhibitors; settings: in vivo; cited from earlier work
[7] = test system: uptake I (presynaptic membrane); settings: presynaptic membrane level; cited from earlier work
[8] = test system: patients in depressive phase; settings: 5 weeks, tablets 20, 50 and 100 mg three times a day; cited from earlier work
[9] = test system: patients affected by Parkinson's disease; settings: human, in vivo; cited from earlier work
[10] = test system: serotonin in the brains of rats; settings: administered at the same time as monoamino-oxydase inhibitors; cited from earlier work
[11] = Analgesic activity, chemical analgesia; format: in vivo
[12] = Analgesic activity, thermal analgesia (hot plate at 55° C.); format: in vivo
[13] = test system: responses to serotonin (rat's isolated uterus); test: Antiserotoninic activity, rat's isolated uterus; settings: 40 mcg/ml
cerebral serotonin [14] = test: Cerebral serotonin level (inferred from symptomatology of the animals injected); format: in vivo; settings: compared with sole administration of L-5-hydroxytryptophan
[15] = mice of both sexes, intraperitoneal

5-hydroxytryptophan glutamate [the product obtained by this method]
tolerability [1]: great tolerability

NC(Cc1c[nH]c2ccc(O)cc12)C(=O)O (racemic) [DL-5-OH-tryptophan]
improvement of depression (depressed patients): improvement of depression in one day

N[C@@H]1C[C@H]1c1ccccc1 (relative stereo) [Tranilcypromine]
LD50 [2]: 11.3 mg/kg
LD16 (I.C.R. Swiss albino mice; [15]): 7.3 mg/kg
LD84 (I.C.R. Swiss albino mice; [15]): 18 mg/kg
symptomatology of our product observed with comparator (female mice): Neither is this symptomatology observed
cerebral serotonin raising action compared with our product (cerebral serotonin [3]): very inferior to our product
adverse effects and secondary reactions [4]: great amount of adverse effects and secondary reactions
inhibition of MAO (MAO): powerful inhibitor of non-hydrazinic MAO

N[C@@H](Cc1c[nH]c2ccc(O)cc12)C(=O)O [5-hydroxytryptophan]
raising of the level of serotonin in the brain (serotonin in the brain): 10 times
tissue penetration ([5]; animals): rapidly penetrates most tissues
conversion into serotonin ([5]; if there is decarboxylase): converted into serotonin
time to disappearance of the depressive symptoms after treatment (depressive patient; 5 days): two
response of depressive symptoms (depressive patient): rapid improvement in the state of mind
potentiation of the antidepressive effects of the MAO inhibitors [6]: potentiation of the antidepressive effects of the MAO inhibitors has been observed

CN(C)CCCN1c2ccccc2CCc2ccccc21 [Imipramine]
LD16 (I.C.R. Swiss albino mice; [15]): 33.3 mg/kg
LD84 (I.C.R. Swiss albino mice; [15]): 80 mg/kg
incorporation blockage (uptake I) [7]: produces an incorporation blockage (uptake I) on the presynaptic membrane level

N[C@@H](Cc1c[nH]c2ccc(O)cc12)C(=O)O [L-5-hydroxytryptophan]
symptomatology of our product observed with comparator (female mice): not observed
remission of depressive symptoms [8]: symptoms remitting so rapidly that even the patients themselves were impressed
anti-tremor effect [9]: visible anti-tremor effect
antidepressive action in Parkinson's disease patients [9]: intense antidepressive action with improvement of the affective field, of the psychomotor impulse and activation of personal initiative

N[C@@H](Cc1ccc(O)c(O)c1)C(=O)O [L-DOPA]
response of depressive symptoms (depressive patient): without obtaining any result

N[C@@H](CCC(=O)O)C(=O)O [L-glutamic acid]
symptomatology of our product observed with comparator (female mice): not observed

CN(C)CCC=C1c2ccccc2CCc2ccccc21 [amitryptiline]
response of depressive symptoms (depressive patient): did not produce any positive response

N[C@@H](Cc1c[nH]c2ccccc12)C(=O)O [tryptophan]
increase in brain serotonin with monoamino-oxydase inhibitors [10]: the increase becomes higher
potentiation of the antidepressive effects of the MAO inhibitors [6]: potentiation of the antidepressive effects of the MAO inhibitors has been observed

L-5 hydroxytryptophan monohydrate L-glutamate [Our product]
times less toxic than imipramine (I.C.R. Swiss albino mice; from the foregoing table): 6 times
times less toxic than tranilcypromine (I.C.R. Swiss albino mice; from the foregoing table): 300 times
LD16 (I.C.R. Swiss albino mice; [15]): 260.5 mg/kg
LD50 (I.C.R. Swiss albino mice; [15]): 323 mg/kg
LD84 (I.C.R. Swiss albino mice; [15]): 401.4 mg/kg
duration of symptoms (female mice; 10 mg/kg orally): ≥ 120 min
onset of symptoms after administration (female mice; 10 mg/kg orally): 15 min
pharmacological activity compared with each ingredient separately (female mice; equimolecular doses): superior to that of each ingredient separately
symptoms (Irwin's schema) (female mice; our product 10 mg/kg orally, female mice 28±2 g): increase in the state of alertness, a reaction to cleanliness and an increase in spontaneous activity, in addition to restlessness and irritability
analgesic effect compared with dextropropoxyphene ([11]; 10 mg/kg oral vs dextropropoxyphene 50 mg/kg intraperitoneal, technique (chemical or thermal) not specified): same analgesic effect as dextropropoxyphene
analgesic action, chemical analgesia ([11]; in vivo): significant analgesic action
analgesic action, hot plate [12]: significant analgesic action
inhibition of the responses to serotonin [13]: 36%
raising of cerebral serotonin levels (cerebral serotonin [14]): raises the levels of cerebral serotonin, in a greater way than the sole administration of L-5-hydroxytryptophan
adverse effects and secondary reactions [4]: No interesting secondary reactions have yet been described

— patent US4029807A (priority 1975, dated 1977)
